# How the values were obtained:
# Hyaluronic Acid = test: Hyaluronic acid ELISA on extracts of treated MatTek EpiDermFT (EFT-200) full thickness skin equivalent cultures; assay type: cell-based, human; conditions: topical 0.5%, 1.0%, 2.0% in water, 20-24 hours, EFT-200 cultures, vs vehicle Control; dose-responsive
# Experimental: (§1) To evaluate skin anti-aging benefits of n-acetyl glucosamine and niacinamide. An in vitro skin biomarker experiment is conducted using the MatTek Human Skin EpiDermFT Skin Model (EFT 200; MatTek Corp., Ashland, Mass. USA). The MatTek Skin Model is a full thickness culture system that emulates normal human skin properties and function. It contains a three-dimensional, highly differentiated human epidermis with 8-12 cell layers including basal, spinous, granular and stratum corneum layers; the epidermis is grown above a human dermal fibroblast-containing collagen matrix. The MatTek cultures are air-interfaced, so that test substances can be applied topically to the stratum corneum surface. The cultures are supplied in 24-well, medium-supplemented agarose gels.
# (§2) MatTek EFT-200 full thickness skin equivalent cultures used are examined for visual defects and equilibrated overnight after their arrival from the supplier. After treatment with test materials the cultures' viability is confirmed through MTT viability assay. […]
# (§3) After treatment for 20-24 hours, replicate (3) cultures are extracted using a mild extraction buffer (T-per). The extract is then analyzed for hyaluronic acid and procollagen-1.
# (§4) • 1. […] Analyze supernatant with the Micro BCA kit to quantitate protein concentration. • 4. […]
# Procollagen I = Procollagen I ELISA on extracts of treated MatTek EpiDermFT (EFT-200) full thickness skin equivalent cultures; assay type: cell-based, human; conditions: topical 0.5%, 2.0% in water, 20-24 hours, EFT-200 cultures, vs vehicle Control, dose-responsive
# Experimental: as §1, §2, §3, §4
structure (smiles),measurement,setting,value
CC(=O)N[C@@H]1[C@@H](O)[C@H](O)[C@@H](CO)O[C@H]1O [n-Acetyl Glucosamine],expression of hyaluronic acid,Hyaluronic Acid,significantly increased over Control
same,expression of procollagen 1,Procollagen I,significantly increased over Control

# From patent US20070196344A1, “Methods for identifying materials that can help regulate the condition of mammalian keratinous tissue” (The Procter & Gamble Company, priority 2006, published 2007)
